Several values for one entry are separate records, joined by “and”; a condition that tells them apart may be missing. Equal values may be shown once. Read-outs that look alike come from different tables or passages of the source.
How the values were obtained:
T47D = assay: Cell viability assay, adherent cell line, 5 day Alamar Blue (Example 8): T47D; assay type: cell-based; conditions: Homo sapiens, 120 h, Breast Cancer Cell Viability
[1] = Pharmacokinetic studies of certain compounds in female Balb/c mice (Example 5); assay type: in vivo
Experimental: Pharmacokinetic studies were performed using Balb/c mice, 15-20 g, 6-9 weeks, female, N=9, purchased from Jihui Laboratory Animal Co. LTD. For compound I-29, Balb/c mice, 19-21 g, 9-11 weeks, female, N=9, were used. The mice were fasted overnight and fed at 4 h post dosing.
Animals were dosed via oral gavage (PO) or tail vein injection (IV) with compound. Sampling occurred at 0.083, 0.25, 0.5, 1, 2, 4, 8, and 24 h post dose (8 time points). The animals were restrained manually at the designated time points. Approx. […] of blood was taken from the animals via facial vein for semi-serial bleeding into tubes with K2EDTA. Blood samples were put on ice and centrifuged at 4° C. (2000 g, 5 min) to obtain plasma within 15 min after sample collection. Plasma samples were stored in dry ice temporarily and at approximately −70° C. until analysis.
For oral gavage, the compound was dosed as a suspension in 1% sodium carboxymethyl cellulose (CMC) and 0.2% Tween 80 in water. For 23.8 mg/kg and 30 mg/kg doses, 3 mg/mL was used; for 50 mg/kg doses, 5 mg/mL was used; and for 100 mg/kg doses, 10 mg/mL was used.
For IV administration, the compound was dosed as a solution in 5% DMSO, 5% Solutol HS15 and 90% saline. For 1 mg/kg and 1.48 mg/kg doses, 0.2 mg/mL was used.
Plasma samples were analyzed using LC-MS using a calibration curve of known concentrations.
The results of these studies are summarized in Tables 11-21 below and in FIGS. 2-8. […] BQL=below quantifiable limit for compound in female Balb/c mouse plasma samples. NA=not available. PK parameters were estimated by non-compartmental model using WinNonlin 8.2. If the adjusted rsq (linear regression coefficient of the concentration value on the terminal phase) was less than 0.9, T1/2 might not have been accurately estimated. F value was determined by the following equation: • If AUClast/AUCINF>80%:
F=(AUCINF-EX×DOSEIV)/(AUCINF-IV×DOSEEX)[…] • If AUClast/AUCINF<80% or AUCINF not available:
F=(AUClast-EX×DOSEIV)/(AUClast-IV×DOSEEX)*1000

NCIH510A = assay: Cell viability assay, suspension cell line, 5 day Alamar Blue (Example 8): NCIH510A; assay type: cell-based; conditions: Homo sapiens, NCI-H510A, 120 h, Small Cell Lung Cancer Cell Line
[2] = I-8 IV 1 mg/kg, 8 hr, BQL = below quantifiable limit of 3.00 ng/mL
[3] = I-8 IV 1 mg/kg, 24 hr, BQL = below quantifiable limit of 3.00 ng/mL

**Q.** With CC(C)Cc1sc(Nc2ncc(-c3cccs3)cc2C(=O)O)nc1C1=CCCC1 [Compound I-8] as the compound, how does the IC50 (T47D) read?
**A.** ≤ 1000 nM

**Q.** And the “Plasma concentration Individual” value ([1]; I-8 IV 1 mg/kg, 0.083 hr, 1 mg/kg)?
**A.** 2020 ng/mL and 1630 ng/mL

**Q.** And the “Plasma concentration Individual” value ([1]; I-8 IV 1 mg/kg, 0.25 hr, 1 mg/kg)?
**A.** 632 ng/mL and 700 ng/mL

**Q.** And the “Plasma concentration Individual” value ([1]; I-8 IV 1 mg/kg, 0.5 hr, 1 mg/kg)?
**A.** 309 ng/mL and 296 ng/mL

**Q.** What about the “Plasma concentration Individual” value ([1]; I-8 IV 1 mg/kg, 1 hr, 1 mg/kg) of the same compound?
**A.** 66.5 ng/mL and 97.1 ng/mL

**Q.** What about the “Plasma concentration Individual” value ([1]; I-8 IV 1 mg/kg, 2 hr, 1 mg/kg) of the same compound?
**A.** 25.8 ng/mL and 16.3 ng/mL

**Q.** And the “Plasma concentration Individual” value ([1]; I-8 IV 1 mg/kg, 4 hr, 1 mg/kg)?
**A.** 7.83 ng/mL and 8.03 ng/mL

**Q.** What about the “Plasma concentration Individual” value [1, 2] of the same compound?
**A.** BQL

**Q.** And the “Plasma concentration Mean” value [1, 2]?
**A.** BQL

**Q.** And the “Plasma concentration Individual” value [1, 3]?
**A.** BQL

**Q.** What about the “Plasma concentration Mean” value [1, 3] of the same compound?
**A.** BQL

**Q.** And the F ([1]; I-8 PO 50 mg/kg vs IV 1 mg/kg)?
**A.** 27.8%

**Q.** And the “Plasma concentration Individual” value ([1]; I-8 PO 50 mg/kg, 0.083 hr, 50 mg/kg)?
**A.** 482 ng/mL and 270 ng/mL

**Q.** What about the “Plasma concentration Individual” value ([1]; I-8 PO 50 mg/kg, 0.25 hr, 50 mg/kg) of the same compound?
**A.** 1250 ng/mL and 2030 ng/mL

**Q.** And the “Plasma concentration Individual” value ([1]; I-8 PO 50 mg/kg, 0.5 hr, 50 mg/kg)?
**A.** 1900 ng/mL and 3970 ng/mL and 4110 ng/mL

**Q.** What about the “Plasma concentration Individual” value ([1]; I-8 PO 50 mg/kg, 1 hr, 50 mg/kg) of the same compound?
**A.** 3600 ng/mL and 2260 ng/mL

**Q.** What about the “Plasma concentration Individual” value ([1]; I-8 PO 50 mg/kg, 2 hr, 50 mg/kg) of the same compound?
**A.** 2510 ng/mL and 1700 ng/mL

**Q.** And the “Plasma concentration Individual” value ([1]; I-8 PO 50 mg/kg, 4 hr, 50 mg/kg)?
**A.** 536 ng/mL and 958 ng/mL

**Q.** What about the “Plasma concentration Individual” value ([1]; I-8 PO 50 mg/kg, 8 hr, 50 mg/kg) of the same compound?
**A.** 127 ng/mL and 134 ng/mL

**Q.** And the “Plasma concentration Individual” value ([1]; I-8 PO 50 mg/kg, 24 hr, 50 mg/kg)?
**A.** 5.77 ng/mL and 14.0 ng/mL and 3.49 ng/mL

**Q.** And the concentration at 0.083 hr ([1]; female, Balb/c, mouse, plasma, iv, 1 mg/kg, I-8 IV 1 mg/kg, 0.083 hr, read-out: Plasma concentration Individual)?
**A.** 1780 ng/mL

**Q.** And the concentration at 0.083 hr ([1]; female, Balb/c, mouse, plasma, iv, 1 mg/kg, I-8 IV 1 mg/kg, 0.083 hr, read-out: Plasma concentration Mean)?
**A.** 1810 ng/mL

**Q.** What about the concentration at 0.25 hr ([1]; female, Balb/c, mouse, plasma, iv, 1 mg/kg, I-8 IV 1 mg/kg, 0.25 hr, read-out: Plasma concentration Individual) of the same compound?
**A.** 847 ng/mL

**Q.** And the concentration at 0.25 hr ([1]; female, Balb/c, mouse, plasma, iv, 1 mg/kg, I-8 IV 1 mg/kg, 0.25 hr, read-out: Plasma concentration Mean)?
**A.** 726 ng/mL

**Q.** And the concentration at 0.5 hr ([1]; female, Balb/c, mouse, plasma, iv, 1 mg/kg, I-8 IV 1 mg/kg, 0.5 hr, read-out: Plasma concentration Individual)?
**A.** 232 ng/mL

**Q.** And the concentration at 0.5 hr ([1]; female, Balb/c, mouse, plasma, iv, 1 mg/kg, I-8 IV 1 mg/kg, 0.5 hr, read-out: Plasma concentration Mean)?
**A.** 279 ng/mL

**Q.** And the concentration at 1 hr ([1]; female, Balb/c, mouse, plasma, iv, 1 mg/kg, I-8 IV 1 mg/kg, 1 hr, read-out: Plasma concentration Individual)?
**A.** 85.2 ng/mL

**Q.** And the concentration at 1 hr ([1]; female, Balb/c, mouse, plasma, iv, 1 mg/kg, I-8 IV 1 mg/kg, 1 hr, read-out: Plasma concentration Mean)?
**A.** 82.9 ng/mL

**Q.** What about the concentration at 2 hr ([1]; female, Balb/c, mouse, plasma, iv, 1 mg/kg, I-8 IV 1 mg/kg, 2 hr, read-out: Plasma concentration Individual) of the same compound?
**A.** 24.8 ng/mL

**Q.** What about the concentration at 2 hr ([1]; female, Balb/c, mouse, plasma, iv, 1 mg/kg, I-8 IV 1 mg/kg, 2 hr, read-out: Plasma concentration Mean) of the same compound?
**A.** 22.3 ng/mL

**Q.** And the concentration at 4 hr ([1]; female, Balb/c, mouse, plasma, iv, 1 mg/kg, I-8 IV 1 mg/kg, 4 hr, read-out: Plasma concentration Individual)?
**A.** 10 ng/mL

**Q.** What about the concentration at 4 hr ([1]; female, Balb/c, mouse, plasma, iv, 1 mg/kg, I-8 IV 1 mg/kg, 4 hr, read-out: Plasma concentration Mean) of the same compound?
**A.** 8.62 ng/mL

**Q.** And the concentration at 0.083 h ([1]; female, Balb/c, mouse, plasma, po, 50 mg/kg, I-8 PO 50 mg/kg, 0.083 hr, read-out: Plasma concentration Individual)?
**A.** 247 ng/mL

**Q.** What about the concentration at 0.083 h ([1]; female, Balb/c, mouse, plasma, po, 50 mg/kg, I-8 PO 50 mg/kg, 0.083 hr, read-out: Plasma concentration Mean) of the same compound?
**A.** 333 ng/mL

**Q.** What about the concentration at 0.25 h ([1]; female, Balb/c, mouse, plasma, po, 50 mg/kg, I-8 PO 50 mg/kg, 0.25 hr, read-out: Plasma concentration Individual) of the same compound?
**A.** 1220 ng/mL

**Q.** And the concentration at 0.25 h ([1]; female, Balb/c, mouse, plasma, po, 50 mg/kg, I-8 PO 50 mg/kg, 0.25 hr, read-out: Plasma concentration Mean)?
**A.** 1500 ng/mL

**Q.** What about the concentration at 0.5 hr ([1]; female, Balb/c, mouse, plasma, po, 50 mg/kg, I-8 PO 50 mg/kg, 0.5 hr, read-out: Plasma concentration Mean) of the same compound?
**A.** 3330 ng/mL

**Q.** What about the concentration at 1 h ([1]; female, Balb/c, mouse, plasma, po, 50 mg/kg, I-8 PO 50 mg/kg, 1 hr, read-out: Plasma concentration Individual) of the same compound?
**A.** 1810 ng/mL

**Q.** What about the concentration at 1 h ([1]; female, Balb/c, mouse, plasma, po, 50 mg/kg, I-8 PO 50 mg/kg, 1 hr, read-out: Plasma concentration Mean) of the same compound?
**A.** 2560 ng/mL

**Q.** And the concentration at 2 h ([1]; female, Balb/c, mouse, plasma, po, 50 mg/kg, I-8 PO 50 mg/kg, 2 hr, read-out: Plasma concentration Individual)?
**A.** 1670 ng/mL

**Q.** And the concentration at 2 h ([1]; female, Balb/c, mouse, plasma, po, 50 mg/kg, I-8 PO 50 mg/kg, 2 hr, read-out: Plasma concentration Mean)?
**A.** 1960 ng/mL

**Q.** What about the concentration at 4 h ([1]; female, Balb/c, mouse, plasma, po, 50 mg/kg, I-8 PO 50 mg/kg, 4 hr, read-out: Plasma concentration Individual) of the same compound?
**A.** 530 ng/mL

**Q.** And the concentration at 4 h ([1]; female, Balb/c, mouse, plasma, po, 50 mg/kg, I-8 PO 50 mg/kg, 4 hr, read-out: Plasma concentration Mean)?
**A.** 675 ng/mL

**Q.** What about the concentration at 8 h ([1]; female, Balb/c, mouse, plasma, po, 50 mg/kg, I-8 PO 50 mg/kg, 8 hr, read-out: Plasma concentration Individual) of the same compound?
**A.** 155 ng/mL

**Q.** What about the concentration at 8 h ([1]; female, Balb/c, mouse, plasma, po, 50 mg/kg, I-8 PO 50 mg/kg, 8 hr, read-out: Plasma concentration Mean) of the same compound?
**A.** 139 ng/mL

**Q.** What about the concentration at 24 h ([1]; female, Balb/c, mouse, plasma, po, 50 mg/kg, I-8 PO 50 mg/kg, 24 hr, read-out: Plasma concentration Mean) of the same compound?
**A.** 7.75 ng/mL

**Q.** What about the AUC(0-inf) ([1]; mouse, plasma, I-8 IV 1 mg/kg) of the same compound?
**A.** 717 ng·h/mL

**Q.** And the AUC(0-t) ([1]; mouse, plasma, I-8 IV 1 mg/kg)?
**A.** 705 ng·h/mL

**Q.** What about the C0 ([1]; mouse, plasma, I-8 IV 1 mg/kg) of the same compound?
**A.** 2850 ng/mL

**Q.** What about the MRT inf ([1]; mouse, plasma, I-8 IV 1 mg/kg) of the same compound?
**A.** 28.3 min

**Q.** What about the MRT last ([1]; mouse, plasma, I-8 IV 1 mg/kg) of the same compound?
**A.** 23.2 min

**Q.** What about the clearance ([1]; mouse, plasma, I-8 IV 1 mg/kg) of the same compound?
**A.** 23.2 mL/min/kg

**Q.** What about the half-life ([1]; mouse, plasma, I-8 IV 1 mg/kg) of the same compound?
**A.** 58.2 min

**Q.** And the Vd ([1]; mouse, plasma, I-8 IV 1 mg/kg, read-out: Vss)?
**A.** 0.657 L/kg

**Q.** And the AUC(0-inf) ([1]; mouse, plasma, I-8 PO 50 mg/kg)?
**A.** 9970 ng·h/mL

**Q.** And the AUC(0-t) ([1]; mouse, plasma, I-8 PO 50 mg/kg)?
**A.** 9930 ng·h/mL

**Q.** And the Cmax ([1]; mouse, plasma, I-8 PO 50 mg/kg)?
**A.** 3330 ng/mL

**Q.** And the MRT inf ([1]; mouse, plasma, I-8 PO 50 mg/kg)?
**A.** 182 min

**Q.** And the MRT last ([1]; mouse, plasma, I-8 PO 50 mg/kg)?
**A.** 176 min

**Q.** What about the Tmax ([1]; mouse, plasma, I-8 PO 50 mg/kg) of the same compound?
**A.** 30 min

**Q.** What about the half-life ([1]; mouse, plasma, I-8 PO 50 mg/kg) of the same compound?
**A.** 197 min

**Q.** What about the IC50 (NCIH510A) of the same compound?
**A.** ≤ 1000 nM
